Reference: patent US10894788B2, “Inhibitors of cyclin-dependent kinases” (Kinnate Biopharma Inc., priority 2018, dated 2021)

Target: CDK12 wt/CycK (Homo sapiens (Human), UniProt Q9NYV4)
Experiment: Radiometric protein kinase assay (33PanQinase Activity Assay), Assay Condition A (thiol containing conditions)
Assay type: biochemical
Conditions: not given
Protocol: Example 1—Assay Condition A (Thiol Containing Conditions)
Objective: The IC50 profile of test compounds was determined using three protein kinases.
Test compounds: The compounds were provided as pre-weighed powders in vials. The compounds were dissolved to 1×10^−02M by adding DMSO. 100 μl of each of the resulting stock solutions were transferred into column 2 of four 96 well “master plates”.
Prior to testing, the 1×10^−02M stock solutions in column 2 of the master plates were subjected to a serial, semi-logarithmic dilution using 100% DMSO as a solvent. […] Column 1 and 7 were filled with 100% DMSO as controls. Subsequently, 2×10 μl from each well of the serial diluted copy plates were aliquoted with a 96 channel pipettor into two identical sets of “compound dilution plates”.
In the process, 90 μl H2O were added to each well of a set of compound dilution plates. To minimize potential precipitation, the H2O was added to each plate only a few minutes before the transfer of the compound solutions into the assay plates. Each plate was shaken thoroughly, resulting in a “compound dilution plate/10% DMSO”.
For the assays, 5 μl solution from each well of the compound dilution plates/10% DMSO were transferred into the assay plates. The final volume of the assay was 50 μl. All compounds were tested at 10 final assay concentrations in the range from 1×10^−04M to 3×10^−09M, in singlicate. The final DMSO concentration in the reaction cocktails was 1% in all cases.
Recombinant protein kinases: All protein kinases were expressed in Sf9 insect cells or in E. coli as recombinant GST-fusion proteins or His-tagged proteins, either as full-length or enzymatically active fragments. All kinases were produced from human cDNAs and purified by either GSH-affinity chromatography or immobilized metal. Affinity tags were removed from a number of kinases during purification. The purity of the protein kinases was examined by SDS-PAGE/Coomassie staining, the identity was checked by mass spectroscopy.
Protein kinase assay: A radiometric protein kinase assay (^33PanQinase® Activity Assay) was used for measuring the kinase activity of the three protein kinases. All kinase assays were performed in 96-well FlashPlates™ from PerkinElmer (Boston, Mass., USA) in a 50 μl reaction volume. The reaction cocktail was pipetted in four steps in the following order: • 20 μl of assay buffer (standard buffer) • 5 μl of ATP solution (in H2O) • 5 μl of test compound (in 10% DMSO) • 20 μl enzyme/substrate mix
The following amounts of enzyme and substrate were used per well:
The reaction cocktails were incubated at 30° C. for 60 minutes. The reaction was stopped with 50 μl of 2% (v/v) H3PO4, plates were aspirated and washed two times with 200 μl 0.9% (w/v) NaCl. Incorporation of ^33Pi was determined with a microplate scintillation counter (Microbeta, Wallac). All assays were performed with a BeckmanCoulter/SAGIAN™ Core System.
Evaluation of raw data: The median value of the counts in column 1 (n=8) of each assay plate was defined as “low control”. This value reflects unspecific binding of radioactivity to the plate in the absence of a protein kinase but in the presence of the substrate. The median value of the counts in column 7 of each assay plate (n=8) was taken as the “high control”, i.e. full activity in the absence of any inhibitor. The difference between high and low control was taken as 100% activity.
As part of the data evaluation the low control value from a particular plate was subtracted from the high control value as well as from all 80 “compound values” of the corresponding plate. The residual activity (in %) for each well of a particular plate was calculated by using the following formula: Res. Activity (%)=100×[(cpm of compound−low control)/(high control−low control)]
The residual activities for each concentration and the compound IC50 values were calculated using Quattro Workflow V3.1.1 (Quattro Research GmbH, Munich, Germany).

Chain of CDK12 wt/CycK (Q9NYV4 whole entry): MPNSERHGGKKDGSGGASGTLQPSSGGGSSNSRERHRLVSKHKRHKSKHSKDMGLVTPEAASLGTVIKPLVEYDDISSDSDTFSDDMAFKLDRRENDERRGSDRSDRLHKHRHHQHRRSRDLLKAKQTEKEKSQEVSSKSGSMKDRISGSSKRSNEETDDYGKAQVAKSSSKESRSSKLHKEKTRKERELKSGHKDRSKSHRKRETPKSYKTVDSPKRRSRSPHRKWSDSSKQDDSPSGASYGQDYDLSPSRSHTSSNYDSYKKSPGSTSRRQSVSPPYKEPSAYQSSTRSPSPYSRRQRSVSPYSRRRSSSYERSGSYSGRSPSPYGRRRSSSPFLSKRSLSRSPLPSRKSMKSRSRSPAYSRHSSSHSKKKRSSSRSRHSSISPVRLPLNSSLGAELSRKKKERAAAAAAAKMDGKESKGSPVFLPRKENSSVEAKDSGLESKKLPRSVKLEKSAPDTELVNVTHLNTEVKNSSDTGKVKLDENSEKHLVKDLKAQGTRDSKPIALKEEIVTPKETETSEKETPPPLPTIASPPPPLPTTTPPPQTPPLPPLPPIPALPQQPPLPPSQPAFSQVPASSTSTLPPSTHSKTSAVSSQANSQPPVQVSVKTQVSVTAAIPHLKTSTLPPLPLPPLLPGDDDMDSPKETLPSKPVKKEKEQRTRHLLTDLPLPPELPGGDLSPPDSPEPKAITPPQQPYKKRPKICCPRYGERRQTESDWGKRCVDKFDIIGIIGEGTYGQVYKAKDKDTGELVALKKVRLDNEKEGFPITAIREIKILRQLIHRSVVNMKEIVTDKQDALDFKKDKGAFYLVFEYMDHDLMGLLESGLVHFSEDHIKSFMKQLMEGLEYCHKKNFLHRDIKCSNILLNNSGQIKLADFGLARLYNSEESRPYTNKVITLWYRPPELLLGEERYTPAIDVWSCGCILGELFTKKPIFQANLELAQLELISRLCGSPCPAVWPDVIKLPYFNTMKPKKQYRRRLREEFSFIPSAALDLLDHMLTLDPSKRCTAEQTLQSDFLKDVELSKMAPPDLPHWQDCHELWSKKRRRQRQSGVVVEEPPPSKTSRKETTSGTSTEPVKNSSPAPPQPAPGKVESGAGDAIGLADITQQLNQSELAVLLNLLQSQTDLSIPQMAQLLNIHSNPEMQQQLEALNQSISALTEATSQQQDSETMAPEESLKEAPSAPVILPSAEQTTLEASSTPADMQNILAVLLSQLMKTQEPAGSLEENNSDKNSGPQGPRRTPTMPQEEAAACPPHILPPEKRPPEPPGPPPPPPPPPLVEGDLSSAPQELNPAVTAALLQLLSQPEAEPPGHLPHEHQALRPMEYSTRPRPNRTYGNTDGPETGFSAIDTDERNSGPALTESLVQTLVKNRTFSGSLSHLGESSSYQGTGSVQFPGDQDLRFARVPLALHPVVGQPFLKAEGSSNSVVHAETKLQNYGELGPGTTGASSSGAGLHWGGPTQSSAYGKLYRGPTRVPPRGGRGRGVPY
Chain of CDK12 wt/CycK (O75909 whole entry partner): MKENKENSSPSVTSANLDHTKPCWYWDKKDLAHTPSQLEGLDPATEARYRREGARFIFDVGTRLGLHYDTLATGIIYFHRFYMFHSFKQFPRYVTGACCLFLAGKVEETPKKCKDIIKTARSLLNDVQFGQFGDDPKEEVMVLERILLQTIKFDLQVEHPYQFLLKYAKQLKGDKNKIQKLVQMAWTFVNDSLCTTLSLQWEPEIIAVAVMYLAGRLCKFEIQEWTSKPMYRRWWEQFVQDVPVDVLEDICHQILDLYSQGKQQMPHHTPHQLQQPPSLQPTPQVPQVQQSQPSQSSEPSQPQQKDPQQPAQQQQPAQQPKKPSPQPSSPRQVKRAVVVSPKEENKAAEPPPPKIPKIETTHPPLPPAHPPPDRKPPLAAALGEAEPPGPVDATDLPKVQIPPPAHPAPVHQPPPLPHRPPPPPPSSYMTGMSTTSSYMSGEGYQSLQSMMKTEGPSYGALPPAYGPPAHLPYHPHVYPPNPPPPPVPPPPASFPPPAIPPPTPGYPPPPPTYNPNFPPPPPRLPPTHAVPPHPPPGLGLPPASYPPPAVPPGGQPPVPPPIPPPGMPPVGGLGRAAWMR

For `C=CC(=O)Nc1ccc(C(=O)N2CC[C@@](C)(Nc3ncc(Cl)cn3)C2)cc1` [Example 109, (R)—N-(4-(3-((5-chloropyrimidin-2-yl)amino)-3-methylpyrrolidine-1-carbonyl)phenyl)acrylamide], the IC50 was 10000 to 30000 nM.

Same assay, conditions: thiol containing conditions (1.2 mM DTT), ATP 0.3 μM; read-out: CDK12 IC50 Condition A

Compared with `C=CC(=O)N(C)c1ccc(C(=O)N2CC[C@@H](Nc3ncc(C#N)cn3)C2)cc1` [Example 70, (R)—N-(4-(3-((5-cyanopyrimidin-2-yl)amino)pyrrolidine-1-carbonyl)phenyl)-N-methylacrylamide], `C=CC(=O)N(C)c1ccc(C(=O)N2CC[C@@H](Nc3ncc(Br)cn3)C2)cc1` [Example 104, (R)—N-(4-(3-((5-bromopyrimidin-2-yl)amino)pyrrolidine-1-carbonyl)phenyl)-N-methylacrylamide] is lower in IC50: 100 to 1000 nM for the first, under 100 nM for the second.

`C=CC(=O)N(C)c1ccc(C(=O)N2CC[C@@H](Nc3ncc(Cl)c(OC)n3)C2)nc1` [Example 77, (R)—N-(6-(3-((5-chloro-4-methoxypyrimidin-2-yl)amino)pyrrolidine-1-carbonyl)pyridin-3-yl)-N-methylacrylamide] and `C=CC(=O)Nc1cccc(C(=O)N2CC[C@@H](Nc3ncc(Cl)c(OC)n3)C2)c1` [Example 105, (R)—N-(3-(3-((5-chloro-4-methoxypyrimidin-2-yl)amino)pyrrolidine-1-carbonyl)phenyl)acrylamide] fall in the same range of IC50: 100 to 1000 nM for the first, 100 to 1000 nM for the second.

First: C=CC(=O)Nc1ccc(C(=O)N2CC[C@@H](Nc3ncc(Cl)cn3)C2)cc1 [Example 87, (R)—N-(4-(3-((5-chloropyrimidin-2-yl)amino)pyrrolidine-1-carbonyl)phenyl)acrylamide]
Second: C=CC(=O)Nc1ccc(C(=O)N2CC[C@@H](Nc3ncc(CC(C)C)cn3)C2)cc1 [Example 107, (R)—N-(4-(3-((5-isobutylpyrimidin-2-yl)amino)pyrrolidine-1-carbonyl)phenyl)acrylamide]
The IC50 of the first is lower: 100 to 1000 nM for the first, 1000 to 10000 nM for the second.

`C=CC(=O)Nc1ccc(C(=O)N2CC[C@@H](Nc3ncc(Cl)c(OCCOC)n3)C2)cc1` [Example 88, (R)—N-(4-(3-((5-chloro-4-(2-methoxyethoxy)pyrimidin-2-yl)amino)pyrrolidine-1-carbonyl)phenyl)acrylamide] and `C=CC(=O)Nc1ccc(C(=O)N2CC[C@@H](Nc3ncc(Cl)c(OCC)n3)C2)cc1` [Example 96, (R)—N-(4-(3-((5-chloro-4-ethoxypyrimidin-2-yl)amino)pyrrolidine-1-carbonyl)phenyl)acrylamide] cannot be ordered by IC50: under 100 nM for the first, under 100 nM for the second.

Compared with `C=CC(=O)Nc1ccc(C(=O)N2CC[C@@H](Nc3ncc(Cl)c(N4CCC4)n3)C2)cc1` [Example 89, (R)—N-(4-(3-((4-(azetidin-1-yl)-5-chloropyrimidin-2-yl)amino)pyrrolidine-1-carbonyl)phenyl)acrylamide], `C=CC(=O)Nc1ccc(C(=O)N2CC[C@@H](Nc3ncc(Cl)c(N)n3)C2)cc1` [Example 90, (R)—N-(4-(3-((4-amino-5-chloropyrimidin-2-yl)amino)pyrrolidine-1-carbonyl)phenyl)acrylamide] is lower in IC50: 100 to 1000 nM for the first, under 100 nM for the second.

`C=CC(=O)Nc1ccc(C(=O)N2CC[C@@H](Nc3ncc(C(F)(F)F)c(N)n3)C2)cc1` [Example 91, (R)—N-(4-(3-((4-amino-5-(trifluoromethyl)pyrimidin-2-yl)amino)pyrrolidine-1-carbonyl)phenyl)acrylamide] and `C=CC(=O)Nc1ccc(C(=O)N2CC[C@@H](Nc3ncc(Cl)c(C(F)(F)F)n3)C2)cc1` [Example 92, (R)—N-(4-(3-((5-chloro-4-(trifluoromethyl)pyrimidin-2-yl)amino)pyrrolidine-1-carbonyl)phenyl)acrylamide] cannot be ordered by IC50: under 100 nM for the first, under 100 nM for the second.

First: [2H]C([2H])([2H])Oc1nc(N[C@@H]2CCN(C(=O)c3ccc(NC(=O)C=C)cc3)C2)ncc1Cl [Example 93, (R)—N-(4-(3-((5-chloro-4-(trideuteromethoxy)pyrimidin-2-yl)amino)pyrrolidine-1-carbonyl)phenyl)acrylamide]
Second: C=CC(=O)Nc1ccc(C(=O)N2CC[C@@H](Nc3ncc(Cl)c(O)n3)C2)cc1 [Example 97, (R)—N-(4-(3-((5-chloro-4-hydroxypyrimidin-2-yl)amino)pyrrolidine-1-carbonyl)phenyl)acrylamide]
The IC50 of the first is lower: under 100 nM for the first, 30000 to 100000 nM for the second. The first is the more potent here.

`C=CC(=O)Nc1nc(C(=O)N2CC[C@@H](Nc3ncc(Cl)cn3)C2)cs1` [Example 94, (R)—N-(4-(3-((5-chloropyrimidin-2-yl)amino)pyrrolidine-1-carbonyl)thiazol-2-yl)acrylamide] and `C=CC(=O)Nc1nc(C(=O)N2CC[C@@H](Nc3ncc(C(F)(F)F)cn3)C2)cs1` [Example 100, (R)—N-(4-(3-((5-(trifluoromethyl)pyrimidin-2-yl)amino)pyrrolidine-1-carbonyl)thiazol-2-yl)acrylamide] fall in the same range of IC50: 100 to 1000 nM for the first, 100 to 1000 nM for the second.

`C=CC(=O)Nc1ccc(C(=O)N2CC[C@@H](Nc3ncc(Cl)c(Oc4ccccc4)n3)C2)cc1` [Example 95, (R)—N-(4-(3-((5-chloro-4-phenoxypyrimidin-2-yl)amino)pyrrolidine-1-carbonyl)phenyl)acrylamide] and `C=CC(=O)Nc1ccc(C(=O)N2CC[C@@H](Nc3ncc(Cl)c(OCCC#N)n3)C2)cc1` [Example 102, (R)—N-(4-(3-((5-chloro-4-(2-cyanoethoxy)pyrimidin-2-yl)amino)pyrrolidine-1-carbonyl)phenyl)acrylamide] cannot be ordered by IC50: under 100 nM for the first, under 100 nM for the second.

Compared with `CN(C)C/C=C/C(=O)Nc1ccc(C(=O)N2CC[C@@H](Nc3ncc(Cl)cn3)C2)cc1` [Example 98, (R,E)-N-(4-(3-((5-chloropyrimidin-2-yl)amino)pyrrolidine-1-carbonyl)phenyl)-4-(dimethylamino)but-2-enamide], `C=CC(=O)Nc1ccc(C(=O)N2CC[C@](C)(Nc3ncc(Cl)cn3)C2)cc1` [Example 108, (S)—N-(4-(3-((5-chloropyrimidin-2-yl)amino)-3-methylpyrrolidine-1-carbonyl)phenyl)acrylamide] is higher in IC50: 1000 to 10000 nM for the first, 30000 to 100000 nM for the second.

First: C=CC(=O)Nc1ccc(C(=O)N2CC[C@@H](Nc3ncc(C4CC4)c(OC)n3)C2)cc1 [Example 99, (R)—N-(4-(3-((5-cyclopropyl-4-methoxypyrimidin-2-yl)amino)pyrrolidine-1-carbonyl)phenyl)acrylamide]
Second: [2H]c1nc(N[C@@H]2CCN(C(=O)c3ccc(NC(=O)C=C)cc3)C2)nc(NC)c1Cl [Example 111, (R)—N-(4-(3-((5-chloro-4-deutero-6-(methylamino)pyrimidin-2-yl)amino)pyrrolidine-1-carbonyl)phenyl)acrylamide]
The IC50 of the first is higher: 100 to 1000 nM for the first, under 100 nM for the second.

First: C=CC(=O)Nc1nc(C(=O)N2CCC[C@@H](Nc3ncc(Cl)c(OC)n3)C2)cs1 [Example 101, (R)—N-(4-(3-((5-chloro-4-methoxypyrimidin-2-yl)amino)piperidine-1-carbonyl)thiazol-2-yl)acrylamide]
Second: C=CC(=O)Nc1cccc(C(=O)N2CCC[C@@H](Nc3ncc(Cl)c(OC)n3)C2)c1 [Example 106, (R)—N-(3-(3-((5-chloro-4-methoxypyrimidin-2-yl)amino)piperidine-1-carbonyl)phenyl)acrylamide]
The IC50 of the first is lower: 100 to 1000 nM for the first, 10000 to 30000 nM for the second. The first is the more potent here.

Compared with `C=CC(=O)Nc1ccc(C(=O)N2CC[C@@H](Nc3ncc(Cl)cn3)C2)cc1OC1CCOC1` (stereo partly drawn) [Example 103, N-(4-((R)-3-((5-chloropyrimidin-2-yl)amino)pyrrolidine-1-carbonyl)-2-((tetrahydrofuran-3-yl)oxy)phenyl)acrylamide], `C=CC(=O)Nc1cc(C(=O)N2CC[C@@H](Nc3ncc(Cl)cn3)C2)nn1C` [Example 110, (R)—N-(3-(3-((5-chloropyrimidin-2-yl)amino)pyrrolidine-1-carbonyl)-1-methyl-1H-pyrazol-5-yl)acrylamide] is higher in IC50: 100 to 1000 nM for the first, 1000 to 10000 nM for the second.
